Legend:
[1] = Fluorescence excitation/emission spectroscopy and relative quantum yield; assay type: physicochemical; conditions: 7-MC in presence of 10 mM DTT; for Fluorescence λmax ex: emission at 420 nm; for Fluorescence λmax em: excitation at 280 nm; for Relative quantum yield Φ: relative to 4-MUB in DMF
Experimental: The values determined were close to those observed for the 4-MUB fluorophore.
Both absorbance and fluorescence spectra were measured on a Tecan […] M PLEX 200 Pro plate reader equipped with monochromator allowing a scan from 230 to 1000 nm. […] The solutions were then transferred to a Corning (Corning, NY, USA) UV-transparent 96-well plate. Absorbance spectra were recorded from 230 to 800 nm. Emission fluorescence spectra were recorded from 320 to 800 nm, under excitation at 280 nm. Excitation fluorescence spectra were recorded from 230 to 380 nm for an emission at 420 nm. All spectra were recorded with a wavelength step size of 2 nm. Data processing was performed with Excel software 2016. Fluorescence spectra are presented as normalized spectra ranging from 0 to 1. The relative quantum yields were calculated according to Equation (1):(1) ΦT=(AR/AT)×(FT/FR)×(nT/nR)×ΦR where Φ is the fluorescence quantum yield, A is the absorbance at the excitation wavelength, F is the area under the corrected emission curve, and n is the refractive index of the solvent for the test compound (T) and the reference (R). The 4-MUB value in DMF was used as the reference. The LOD (resp. LOQ) values were determined as the minimal concentration of product S-3 required to yield a fluorescence that was twice greater than (respectively, 5-times that of) the fluorescence noise on a sample containing PBS, using an excitation wavelength of 280 nm and an emission wavelength of 386 nm (Figure S44).

[2] = UV-visible absorbance spectroscopy; assay type: physicochemical; conditions: 0.1 mM; for emax (molar absorption coefficient): 7-MC + DTT 10 mM; for Absorbance ε (molar absorption coefficient) / Absorbance λmax abs: 7-MC in presence of 10 mM DTT
Experimental: Subsequently, the analysis was carried out under two distinct conditions: firstly, in DMF, at a final concentration of 0.1 mM; and secondly, in a mixture PBS:DMF (99:1%), at the same final concentration of 0.1 mM. These two experimental setups provided valuable insights into the spectral characteristics of the compounds in both a pure organic solvent and a solvent system closely resembling physiological conditions. The maxima absorption wavelengths are compiled in Table 3. These bands were attributed to transitions within the benzene and pyrone moieties, considered together as a single chromophore. […] Similarly, 7-MC and S-1 to S-6 compounds also absorb in this UV range (λmax = 328–330 nm). […] In the organic solvent, these values are found to be higher compared to those calculated for 4-MUB and 7-MC. Conversely, in PBS, the extinction coefficients for S-glycosides are lower compared to the parent thiol 7-MC. This highlights the profound impact of glycosylation on absorption properties, as well as the importance of solvent choice.
Both absorbance and fluorescence spectra were measured on a Tecan […] M PLEX 200 Pro plate reader equipped with monochromator allowing a scan from 230 to 1000 nm. All synthesized molecules were initially dissolved in 10 mM DMF and subsequently diluted in freshly prepared PBS (pH = 7.4) to achieve a final concentration of 0.1 mM. The solutions were then transferred to a Corning (Corning, NY, USA) UV-transparent 96-well plate. Absorbance spectra were recorded from 230 to 800 nm. Emission fluorescence spectra were recorded from 320 to 800 nm, under excitation at 280 nm. Excitation fluorescence spectra were recorded from 230 to 380 nm for an emission at 420 nm. All spectra were recorded with a wavelength step size of 2 nm. Data processing was performed with Excel software 2016. Fluorescence spectra are presented as normalized spectra ranging from 0 to 1. The relative quantum yields were calculated according to Equation (1):(1) ΦT=(AR/AT)×(FT/FR)×[…]×ΦR where Φ is the fluorescence quantum yield, A is the absorbance at the excitation wavelength, F is the area under the corrected emission curve, and n is the refractive index of the solvent for the test compound (T) and the reference (R). The 4-MUB value in DMF was used as the reference. The LOD (resp. LOQ) values were determined as the minimal concentration of product S-3 required to yield a fluorescence that was twice greater than (respectively, 5-times that of) the fluorescence noise on a sample containing PBS, using an excitation wavelength of 280 nm and an emission wavelength of 386 nm (Figure S44).

Structure (SMILES)	Fluorescence λmax ex ([1]; DMF, 0.1 mM)	Fluorescence λmax em ([1]; DMF, 0.1 mM)	Relative quantum yield Φ ([1]; DMF)	Fluorescence λmax ex ([1]; PBS pH 7.4, 0.1 mM)	Fluorescence λmax em ([1]; PBS pH 7.4, 0.1 mM)	Relative quantum yield Φ ([1]; PBS)	emax (molar absorption coefficient) ([2]; DMF)	Absorbance ε (molar absorption coefficient) ([2]; DMF)	Absorbance λmax abs ([2]; DMF)	emax (molar absorption coefficient) ([2]; PBS 1x (pH = 7.4))	Absorbance ε (molar absorption coefficient) ([2]; PBS (PBS:DMF 99:1, pH 7.4))	Absorbance λmax abs ([2]; PBS (PBS:DMF 99:1, pH 7.4))
Cc1cc(=O)oc2cc(S[C@@H]3OC[C@@H](O)[C@H](O)[C@H]3O)ccc12 [Compound S-2, 4-Methylumbellifer-7-yl 1-thio-β-D-xylopyranoside]	332 nm	386 nm	0.186	326 nm	402 nm	0.181		19.5 10^3 M^−1 cm^−1	330 nm	26044,28033 cm-1 M-1	26.0 10^3 M^−1 cm^−1	324 nm
Cc1cc(=O)oc2cc(S[C@@H]3O[C@H](CO)[C@H](O)[C@H](O)[C@H]3O)ccc12 [Compound S-4, 4-Methylumbellifer-7-yl 1-thio-β-D-galactopyranoside]	334 nm	388 nm	0.223	332 nm	402 nm	0.271	22265,68277 cm-1 M-1	22.3 10^3 M^−1 cm^−1	330 nm	18357,93367 cm-1 M-1	18.4 10^3 M^−1 cm^−1	326 nm
Cc1cc(=O)oc2cc(S)ccc12 [Compound 7-MC, 7-mercapto-4-methylcoumarin, reference compound]	334 nm	392 nm	0.009	321 nm	448 nm	0.020	10409,59 cm-1 M-1	10.4 10^3 M^−1 cm^−1	328 nm	28929,88854 cm-1 M-1	28.9 10^3 M^−1 cm^−1	368 nm

The next lines start with the values.

Fluorescence λmax ex ([1]; DMF, 0.1 mM)	Fluorescence λmax em ([1]; DMF, 0.1 mM)	Relative quantum yield Φ ([1]; DMF)	Fluorescence λmax ex ([1]; PBS pH 7.4, 0.1 mM)	Fluorescence λmax em ([1]; PBS pH 7.4, 0.1 mM)	Relative quantum yield Φ ([1]; PBS)	emax (molar absorption coefficient) ([2]; DMF)	Absorbance ε (molar absorption coefficient) ([2]; DMF)	Absorbance λmax abs ([2]; DMF)	emax (molar absorption coefficient) ([2]; PBS 1x (pH = 7.4))	Absorbance ε (molar absorption coefficient) ([2]; PBS (PBS:DMF 99:1, pH 7.4))	Absorbance λmax abs ([2]; PBS (PBS:DMF 99:1, pH 7.4))	Structure (SMILES)
332 nm	390 nm	0.182	332 nm	402 nm	0.235	26660,51579 cm-1 M-1	26.7 10^3 M^−1 cm^−1	330 nm	23328,41338 cm-1 M-1	23.3 10^3 M^−1 cm^−1	326 nm	Cc1cc(=O)oc2cc(S[C@@H]3O[C@H](C(=O)O)[C@@H](O)[C@H](O)[C@H]3O)ccc12 [Compound S-1, 4-Methylumbellifer-7-yl 1-thio-β-D-glucopyranosiduronic acid]
334 nm	388 nm	0.223	332 nm	416 nm	0.185	22265,68277 cm-1 M-1	22.3 10^3 M^−1 cm^−1	330 nm	19811,80752 cm-1 M-1	19.8 10^3 M^−1 cm^−1	326 nm	Cc1cc(=O)oc2cc(S[C@H]3O[C@H](CO)[C@H](O)[C@H](O)[C@H]3O)ccc12 [Compound S-6, 4-Methylumbellifer-7-yl 1-thio-α-D-galactopyranoside]
332 nm	386 nm	0.198	332 nm	402 nm	0.242	18634,68658 cm-1 M-1	18.6 10^3 M^−1 cm^−1	330 nm	20778,59706 cm-1 M-1	20.8 10^3 M^−1 cm^−1	326 nm	Cc1cc(=O)oc2cc(S[C@@H]3O[C@H](CO)[C@@H](O)[C@H](O)[C@H]3O)ccc12 [Compound S-3, 4-Methylumbellifer-7-yl 1-thio-β-D-glucopyranoside]
334 nm	386 nm	0.183	326 nm	402 nm	0.228	22294,93104 cm-1 M-1	22.3 10^3 M^−1 cm^−1	330 nm		10.4 10^3 M^−1 cm^−1	326 nm	Cc1cc(=O)oc2cc(S[C@@H]3O[C@H](C)[C@H](O)[C@H](O)[C@H]3O)ccc12 [Compound S-5, 4-Methylumbellifer-7-yl 1-thio-β-D-fucopyranoside]
